Results reported in patent US9745551B2, “Mesenchymal-like stem cells derived from human embryonic stem cells, methods and uses thereof” (IMSTEM BIOTECHNOLOGY, INC., priority 2012, dated 2017).

System: hES cells
Assay: Embryoid body (EB) and hemangioblast formation from hESC cultured with BIO
Type: cell-based, human
Description: Four hESC cell lines were used: H9 (derived from WiCell Research Institute) (Thomson et al. (1998)); CT2 (derived from University of Connecticut Stem Cell Core (Lin et al. (2010)); MA09 (an FDA approved, clinical-grade cell line derived at Advanced Cell Technology, Inc.) (Klimanskaya et al. (2006)); and ES03-Envy (Envy, a GFP-labeled line, derived at ES International) (Costa et al. (2005)). These cell lines were cultured on Matrigel (BD Biosciences, San Jose, Calif.) and cultured in TeSR1 medium, (Stem Cell Technologies, Vancouver, Canada), with or without adding of 0.05-0.2 μM of BIO (6-Bromoindirubin-3′-oxime (CAS 667463-62-9)).
hESC cells were then differentiated into EB cells and then enriched for HB as previously described (Lu et al. (2008); Lu et al. (2007)). 50-80% confluent hEs cell on the Matrigel plate were digested with Dispase (1 mg/ml for 5 to 10 minutes) and then washed with EB formation basal medium, HPGM (Lonza, Walksville, Md.), or STEMLINE I/II Hematopoietic Stell Cell Expansion Medium (Sigma, St. Louis, Mo.), or StemSpan H3000 (Stem Cell Technologies, Vancouver, Canada), or IMDM with 10% FBS, or DMEDM/F12 with 10% FBS. Cells were then cultured in EB formation medium supplemented with 50 ng/ml of VEGF (Peprotech) and 50 ng/ml of BMP4 (Stemgent) for 48 hours on ultra-low plate at a density of about 2-3 million cells/ml. After 48 hours, half the culture medium was replaced with fresh EB formation medium plus 25-50 ng/ml of bFGF.
Four days later, EB cells formed in the medium were harvested and dissociated into single cells with TrypLE (Invitrogen) at 37° C. for 2-3 minutes. Cells were washed and resuspended at 1-5 million cells/ml in EB formation basal medium. The single cell suspension were then mixed at 1:10 with Hemangioblast Growth Medium (Stem Cell Technologies, Vancouver, Canada). […]

SMILES: O=C1Nc2cc(Br)ccc2/C1=C1/Nc2ccccc2/C1=N\O [BIO, (2′Z,3′E)-6-Bromoindirubin-3′-oxime]
- size and yield of the EB culture (BIO in the mTesr1 medium): increase
- total EB number increase (BIO in the mTesr1 medium): 3 folds
- percentage of CD45 cell differentiation (indicator of hemangioblast differentiation efficiency) (BIO treatment compared to traditional mTesr1 medium): tripled
